Target: T1, renin (Homo sapiens, UniProt P00797)
T1 construct: made in house; host or cells: Chinese Hamster Ovary cells
T1 sequence (P00797 67-406): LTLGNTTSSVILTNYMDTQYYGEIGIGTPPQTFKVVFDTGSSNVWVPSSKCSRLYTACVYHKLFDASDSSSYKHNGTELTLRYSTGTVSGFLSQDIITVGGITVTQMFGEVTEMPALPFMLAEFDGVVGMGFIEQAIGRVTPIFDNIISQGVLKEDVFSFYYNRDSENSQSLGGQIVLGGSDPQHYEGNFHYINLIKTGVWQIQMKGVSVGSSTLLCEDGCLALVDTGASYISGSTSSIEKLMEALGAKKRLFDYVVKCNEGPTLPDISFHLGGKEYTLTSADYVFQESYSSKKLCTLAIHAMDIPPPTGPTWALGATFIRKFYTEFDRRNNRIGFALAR
Assay: renin enzyme assay (which of the described assay systems is not specified)
Format: biochemical
Settings: in the several assay system as described above
Method: Recombinant human renin (expressed in Chinese Hamster Ovary cells and purified using standard methods) at 7.5 nM concentration is incubated with test compound at various concentrations for 1 h at RT in 0.1 M Tris-HCl buffer, pH 7.4, containing 0.05 M NaCl, 0.5 mM EDTA and 0.05% CHAPS. Synthetic peptide substrate Arg-Glu(EDANS)-Ile-His-Pro-Phe-His-Leu-Val-Ile_His_Thr-Lys(DABCYL)-Arg9 is added to a final concentration of 2 μM and increase in fluorescence is recorded at an excitation wave-length of 350 nm and at an emission wave-length of 500 nm in a microplate spectro-fluorimeter. IC50 values are calculated from percentage of inhibition of renin activity as a function of test compound concentration (Fluorescence Resonance Energy Transfer, FRET, assay).
Alternatively, recombinant human renin (expressed in Chinese Hamster Ovary cells and purified using standard methods) at 0.5 nM concentration is incubated with test compound at various concentrations for 2 h at 37° C. in 0.1 M Tris-HCl buffer, pH 7.4, containing 0.05 M NaCl, 0.5 mM EDTA and 0.05% CHAPS. Synthetic peptide substrate Arg-Glu(EDANS)-Ile-His-Pro-Phe-His-Leu-Val-Ile_His_Thr-Lys(DABCYL)-Arg9 is added to a final concentration of 4 μM and increase in fluorescence is recorded at an excitation wave-length of 340 nm and at an emission wave-length of 485 nm in a microplate spectro-fluorimeter. […]

In the case of `Cc1cccc(CN(C(=O)[C@H]2CNCC[C@@H]2c2cccc(-c3ccccc3)c2)C2CC2)c1C` [Example 75], the “inhibitory activity compared with the active enantiomer of Example 8” value is reported as “same inhibitory activity to an active enantiomer of Example 8”.

Reference: patent US8178559B2, “Organic compounds” (Novartis AG, priority 2004, dated 2012)
